Results from article PMC4503722, “Novel Phenotypic Outcomes Identified for a Public Collection of Approved Drugs from a Publicly Accessible Panel of Assays” (PLoS ONE, 2015).

What was measured:
HT-29 = assay: cells; assay type: cell-based; conditions: basal
HCT116 = assay: cells; assay type: cell-based; conditions: basal
hGSK3b = target: T1, hGSK3b (Homo sapiens, UniProt P49841); assay: Cerep LANCE kinase assay hGSK3b (S1 assay 34); assay type: biochemical; conditions: for hGSK3b LANCE IC50/EC50: assay number 34
T1 construct: purchased Cerep (LANCE kinase assay platform, contract assay)
T1 sequence (P49841 whole entry): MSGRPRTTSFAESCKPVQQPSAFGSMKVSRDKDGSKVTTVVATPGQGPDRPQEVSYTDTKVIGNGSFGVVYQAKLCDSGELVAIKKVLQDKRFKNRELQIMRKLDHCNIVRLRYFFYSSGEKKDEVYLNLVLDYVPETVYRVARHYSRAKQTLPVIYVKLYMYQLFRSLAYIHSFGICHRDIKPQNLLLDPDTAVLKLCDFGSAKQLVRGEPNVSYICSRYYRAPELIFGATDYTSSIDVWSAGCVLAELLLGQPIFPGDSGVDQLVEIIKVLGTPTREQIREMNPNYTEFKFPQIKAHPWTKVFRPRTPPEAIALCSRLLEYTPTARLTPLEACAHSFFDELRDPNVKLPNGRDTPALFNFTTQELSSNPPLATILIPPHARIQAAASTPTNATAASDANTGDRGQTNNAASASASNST

RKO = assay: cells; assay type: cell-based; conditions: basal
hp70S6K1 (RPS6KB1) = target: T2, hp70S6K1 (RPS6KB1) (Homo sapiens, UniProt P23443); assay: Cerep LANCE kinase assay hp70S6K1 (S1 assay 31); assay type: biochemical; conditions: for hp70S6K1 LANCE IC50/EC50: assay number 31
T2 construct: purchased Cerep (LANCE kinase assay platform, contract assay)
T2 sequence (P23443 whole entry): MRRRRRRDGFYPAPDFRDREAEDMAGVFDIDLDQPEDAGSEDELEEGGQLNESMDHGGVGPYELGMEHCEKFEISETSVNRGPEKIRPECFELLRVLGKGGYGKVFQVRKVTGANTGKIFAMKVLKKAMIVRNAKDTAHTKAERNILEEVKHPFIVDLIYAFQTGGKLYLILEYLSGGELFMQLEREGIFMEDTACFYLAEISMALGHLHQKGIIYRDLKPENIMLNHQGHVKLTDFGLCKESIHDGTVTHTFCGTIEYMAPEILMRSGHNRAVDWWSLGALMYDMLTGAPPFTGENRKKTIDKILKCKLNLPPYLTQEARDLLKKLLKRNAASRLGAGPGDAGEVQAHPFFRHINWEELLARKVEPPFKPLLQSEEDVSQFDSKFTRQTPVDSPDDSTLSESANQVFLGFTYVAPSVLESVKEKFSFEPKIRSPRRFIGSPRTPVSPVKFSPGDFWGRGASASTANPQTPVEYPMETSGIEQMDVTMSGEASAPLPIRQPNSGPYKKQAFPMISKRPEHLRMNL

[1] = system: alkaline phosphatase (ALP) activity in C2C12 cells; assay type: cell-based; conditions: concentration response; for WntCondMedia_Alk Phos C2C12 IC50/EC50: assay number 6
hKDR = target: T3, hKDR (Homo sapiens, UniProt P35968); assay: Cerep LANCE kinase assay hKDR (S1 assay 32); assay type: biochemical; conditions: for hKDR LANCE IC50/EC50: assay number 32
T3 construct: purchased Cerep (LANCE kinase assay platform, contract assay)
T3 sequence (P35968 20-1356): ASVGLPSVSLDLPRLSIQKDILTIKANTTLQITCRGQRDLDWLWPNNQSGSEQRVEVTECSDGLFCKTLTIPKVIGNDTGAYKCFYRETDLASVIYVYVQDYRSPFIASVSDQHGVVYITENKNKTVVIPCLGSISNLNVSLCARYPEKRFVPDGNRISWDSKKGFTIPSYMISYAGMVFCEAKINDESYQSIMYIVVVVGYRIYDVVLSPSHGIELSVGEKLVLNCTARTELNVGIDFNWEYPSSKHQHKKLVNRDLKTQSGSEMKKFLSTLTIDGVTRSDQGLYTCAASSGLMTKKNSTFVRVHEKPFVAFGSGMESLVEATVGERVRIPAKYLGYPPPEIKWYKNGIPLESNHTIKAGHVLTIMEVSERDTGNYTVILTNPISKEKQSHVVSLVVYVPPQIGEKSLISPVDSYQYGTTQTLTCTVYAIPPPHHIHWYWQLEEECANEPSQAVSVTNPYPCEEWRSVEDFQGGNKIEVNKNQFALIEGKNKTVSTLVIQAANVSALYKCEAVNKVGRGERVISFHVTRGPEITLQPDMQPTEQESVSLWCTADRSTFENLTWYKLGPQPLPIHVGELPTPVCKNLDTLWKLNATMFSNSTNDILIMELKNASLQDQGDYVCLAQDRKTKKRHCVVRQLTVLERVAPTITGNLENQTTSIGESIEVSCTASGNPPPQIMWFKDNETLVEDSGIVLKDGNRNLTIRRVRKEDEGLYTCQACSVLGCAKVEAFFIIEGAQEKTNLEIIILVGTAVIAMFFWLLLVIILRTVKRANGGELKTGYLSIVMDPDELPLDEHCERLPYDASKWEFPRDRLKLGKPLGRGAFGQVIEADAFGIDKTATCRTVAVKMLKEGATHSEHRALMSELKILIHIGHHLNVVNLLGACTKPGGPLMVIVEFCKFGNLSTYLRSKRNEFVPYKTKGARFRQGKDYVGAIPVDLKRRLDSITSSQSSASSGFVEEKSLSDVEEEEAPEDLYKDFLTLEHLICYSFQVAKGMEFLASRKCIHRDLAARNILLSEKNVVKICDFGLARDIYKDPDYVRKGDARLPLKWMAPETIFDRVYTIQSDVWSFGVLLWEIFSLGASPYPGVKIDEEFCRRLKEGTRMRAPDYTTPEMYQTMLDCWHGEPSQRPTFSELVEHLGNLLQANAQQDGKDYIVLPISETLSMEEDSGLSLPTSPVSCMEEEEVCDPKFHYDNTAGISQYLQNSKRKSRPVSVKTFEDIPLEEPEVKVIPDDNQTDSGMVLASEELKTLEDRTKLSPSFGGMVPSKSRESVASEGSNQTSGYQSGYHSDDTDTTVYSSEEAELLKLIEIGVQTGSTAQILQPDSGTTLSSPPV

SW480 = assay: cells; assay type: cell-based; conditions: basal
[2] = system: nuclear β-catenin in C2C12 cells; assay: cells; assay type: cell-based; conditions: concentration response; for WntCondMedia_bCatenin C2C12 IC50/EC50: assay number 5
HeLa cells = assay: cells; assay type: cell-based; conditions: for Hela CellCycMod PI 2N IC50/EC50: assay number 14; for Hela CellCycMod PI 4N IC50/EC50: assay number 16; for Hela CellCycMod PI MI IC50/EC50: assay number 17; for Hela CellCycMod PI Cell Number IC50/EC50: assay number 18
hJAK2 = target: T4, hJAK2 (Homo sapiens, UniProt O60674); assay: Cerep LANCE kinase assay hJAK2 (S1 assay 33); assay type: biochemical; conditions: for hJAK2 LANCE IC50/EC50: assay number 33
T4 construct: purchased Cerep (LANCE kinase assay platform, contract assay)
T4 sequence (O60674 whole entry): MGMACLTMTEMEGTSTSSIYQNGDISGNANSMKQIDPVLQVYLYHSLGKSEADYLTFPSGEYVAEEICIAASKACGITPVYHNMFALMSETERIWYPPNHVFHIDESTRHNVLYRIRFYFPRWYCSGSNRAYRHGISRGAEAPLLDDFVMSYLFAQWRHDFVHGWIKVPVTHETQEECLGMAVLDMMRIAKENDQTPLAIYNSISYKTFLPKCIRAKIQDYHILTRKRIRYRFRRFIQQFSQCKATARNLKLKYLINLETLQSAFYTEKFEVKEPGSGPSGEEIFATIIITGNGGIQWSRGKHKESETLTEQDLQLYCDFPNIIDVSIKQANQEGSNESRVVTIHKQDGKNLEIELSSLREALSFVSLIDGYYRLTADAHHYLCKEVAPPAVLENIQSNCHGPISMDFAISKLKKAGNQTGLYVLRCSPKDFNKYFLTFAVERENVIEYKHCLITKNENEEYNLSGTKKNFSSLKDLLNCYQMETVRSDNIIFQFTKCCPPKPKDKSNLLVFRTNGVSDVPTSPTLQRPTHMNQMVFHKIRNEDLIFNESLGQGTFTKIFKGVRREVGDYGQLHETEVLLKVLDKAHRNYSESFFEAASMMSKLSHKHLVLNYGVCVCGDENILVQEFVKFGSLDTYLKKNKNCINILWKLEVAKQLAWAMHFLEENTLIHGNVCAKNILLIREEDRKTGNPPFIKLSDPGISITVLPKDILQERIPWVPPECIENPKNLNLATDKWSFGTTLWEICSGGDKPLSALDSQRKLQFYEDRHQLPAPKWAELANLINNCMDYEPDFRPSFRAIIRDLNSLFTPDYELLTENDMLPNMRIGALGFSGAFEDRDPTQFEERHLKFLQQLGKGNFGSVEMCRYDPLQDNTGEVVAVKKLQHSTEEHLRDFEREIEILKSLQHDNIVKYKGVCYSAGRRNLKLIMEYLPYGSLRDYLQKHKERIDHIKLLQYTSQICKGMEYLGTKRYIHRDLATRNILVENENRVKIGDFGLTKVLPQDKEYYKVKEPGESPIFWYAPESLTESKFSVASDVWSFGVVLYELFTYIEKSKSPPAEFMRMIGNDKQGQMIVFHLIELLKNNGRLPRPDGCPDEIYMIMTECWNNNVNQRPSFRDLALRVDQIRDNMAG

DLD-1 = assay: cells; assay type: cell-based; conditions: basal
hFLT3 = target: T5, hFLT3 (Homo sapiens, UniProt P36888); assay: Cerep LANCE kinase assay hFLT3 (S1 assay 35); assay type: biochemical; conditions: for hFLT3 LANCE IC50/EC50: assay number 35
T5 construct: purchased Cerep (LANCE kinase assay platform, contract assay)
T5 sequence (P36888 27-993): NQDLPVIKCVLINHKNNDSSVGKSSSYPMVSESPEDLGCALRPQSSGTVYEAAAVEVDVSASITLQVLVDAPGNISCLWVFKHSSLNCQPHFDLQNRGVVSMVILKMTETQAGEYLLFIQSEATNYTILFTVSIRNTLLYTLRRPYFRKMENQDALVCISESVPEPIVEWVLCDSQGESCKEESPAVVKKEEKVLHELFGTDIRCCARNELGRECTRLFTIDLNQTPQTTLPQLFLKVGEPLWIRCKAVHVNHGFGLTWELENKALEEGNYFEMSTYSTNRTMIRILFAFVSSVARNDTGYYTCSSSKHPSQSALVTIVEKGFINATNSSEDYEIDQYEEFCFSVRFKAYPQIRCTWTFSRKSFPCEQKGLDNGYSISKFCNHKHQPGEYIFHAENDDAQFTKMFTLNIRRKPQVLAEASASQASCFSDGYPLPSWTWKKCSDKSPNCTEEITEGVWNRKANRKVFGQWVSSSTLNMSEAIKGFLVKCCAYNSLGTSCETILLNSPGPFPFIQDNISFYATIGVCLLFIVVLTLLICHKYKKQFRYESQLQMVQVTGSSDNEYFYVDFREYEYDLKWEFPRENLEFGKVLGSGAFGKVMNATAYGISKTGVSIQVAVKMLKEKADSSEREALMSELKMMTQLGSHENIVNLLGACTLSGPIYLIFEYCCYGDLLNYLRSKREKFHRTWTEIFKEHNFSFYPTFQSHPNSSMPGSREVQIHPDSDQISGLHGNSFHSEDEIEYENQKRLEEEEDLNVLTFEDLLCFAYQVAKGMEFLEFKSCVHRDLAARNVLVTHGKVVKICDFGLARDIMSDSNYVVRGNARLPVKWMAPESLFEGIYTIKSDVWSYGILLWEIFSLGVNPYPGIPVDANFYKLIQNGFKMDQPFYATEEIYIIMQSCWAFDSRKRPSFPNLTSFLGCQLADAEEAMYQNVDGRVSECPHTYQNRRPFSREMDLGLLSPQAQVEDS

[3] = system: endothelial tube formation in co-cultures of ECFCs and ADSCs treated with VEGF; assay: cells; assay type: cell-based, human
[4] = system: ECFC/ADSC co-culture cell nuclei number
[5] = system: HCT116 cells treated with a GSK3β inhibitor; assay: cells; assay type: cell-based; conditions: GSK3b inh pretreated

COC(=O)Nc1nc2ccc([S+]([O-])c3ccccc3)cc2[nH]1 (stereo not shown) [NCGC00095157-05]
IC50/EC50, Basal_Viability ATP HT-29 (assay number 28) (HT-29): > 20 µM | IC50/EC50, Basal_Viability ATP HCT116 (assay number 25) (HCT116): 0.001 µM | IC50/EC50, hGSK3b LANCE (assay number 34) (hGSK3b): > 20 µM | IC50/EC50, Basal_Viability ATP RKO (assay number 29) (RKO): 0.001 µM | IC50/EC50, hp70S6K1 LANCE (assay number 31) (hp70S6K1 (RPS6KB1)): > 20 µM | IC50/EC50, WntCondMedia_Alk Phos C2C12 (assay number 6) [1]: 0.5593 µM | IC50/EC50, hKDR LANCE (assay number 32) (hKDR): > 20 µM | IC50/EC50, Basal_Viability ATP SW480 (assay number 24) (SW480): > 20 µM | IC50/EC50, WntCondMedia_bCatenin C2C12 (assay number 5) [2]: 0.4683 µM | IC50/EC50, Hela CellCycMod PI 2N (assay number 14) (HeLa cells; 2N): 0.3263 µM | IC50/EC50, Hela CellCycMod PI 4N (assay number 16) (HeLa cells; 4N): 0.331 µM | IC50/EC50, Hela CellCycMod PI Cell Number (assay number 18) (HeLa cells; Cell Number): 0.2575 µM | IC50/EC50, Hela CellCycMod PI MI (assay number 17) (HeLa cells; MI): 0.2411 µM | IC50/EC50, hJAK2 LANCE (assay number 33) (hJAK2): > 20 µM | IC50/EC50, Basal_Viability ATP DLD-1 (assay number 23) (DLD-1): > 20 µM | IC50/EC50, hFLT3 LANCE (assay number 35) (hFLT3): > 20 µM | IC50/EC50, VEGF_ADSC\ECFC Angio CD31 TubeArea (assay number 2) [3]: 0.2884 µM | IC50/EC50, VEGF_ADSC\ECFC Angio Hoechst NucArea (assay number 3) [4]: > 10 µM | IC50/EC50, GSK3b inh pretreated_Viability ATP HCT116 (assay number 26) [5]: 0.001 µM

Cc1ccccc1C(=O)Nc1ccc(C(=O)N2CCCC(N(C)C)c3ccccc32)cc1 (stereo not shown) [NCGC00262931-01]
hGSK3b LANCE IC50/EC50 (hGSK3b): > 20 µM | hp70S6K1 LANCE IC50/EC50 (hp70S6K1 (RPS6KB1)): > 20 µM | WntCondMedia_Alk Phos C2C12 IC50/EC50 [1]: 9.9815 µM | hKDR LANCE IC50/EC50 (hKDR): > 20 µM | WntCondMedia_bCatenin C2C12 IC50/EC50 [2]: 4.5593 µM | Hela CellCycMod PI 2N IC50/EC50 (HeLa cells; 2N): > 10 µM | Hela CellCycMod PI 4N IC50/EC50 (HeLa cells; 4N): > 10 µM | Hela CellCycMod PI MI IC50/EC50 (HeLa cells; MI): 3.4063 µM | Hela CellCycMod PI Cell Number IC50/EC50 (HeLa cells): 2.9147 µM | hJAK2 LANCE IC50/EC50 (hJAK2): > 20 µM | hFLT3 LANCE IC50/EC50 (hFLT3): > 20 µM | VEGF_ADSC\ECFC Angio CD31 TubeArea IC50/EC50 [3]: > 10 µM | VEGF_ADSC\ECFC Angio Hoechst NucArea IC50/EC50 [4]: > 10 µM

CC[C@]1(O)C[C@H]2CN(CCc3c([nH]c4ccccc34)[C@@](C(=O)OC)(c3cc4c(cc3OC)N(C=O)[C@H]3[C@@](O)(C(=O)OC)[C@H](OC(C)=O)[C@]5(CC)C=CCN6CC[C@]43[C@@H]65)C2)C1 [NCGC00263543-01]
hGSK3b LANCE IC50/EC50 (hGSK3b): > 20 µM | hp70S6K1 LANCE IC50/EC50 (hp70S6K1 (RPS6KB1)): > 20 µM | WntCondMedia_Alk Phos C2C12 IC50/EC50 [1]: 0.0051 µM | hKDR LANCE IC50/EC50 (hKDR): > 20 µM | WntCondMedia_bCatenin C2C12 IC50/EC50 [2]: 0.004 µM | Hela CellCycMod PI 2N IC50/EC50 (HeLa cells; 2N): 0.0062 µM | Hela CellCycMod PI 4N IC50/EC50 (HeLa cells; 4N): 0.0059 µM | Hela CellCycMod PI MI IC50/EC50 (HeLa cells; MI): 0.0061 µM | Hela CellCycMod PI Cell Number IC50/EC50 (HeLa cells): 0.0065 µM | hJAK2 LANCE IC50/EC50 (hJAK2): > 20 µM | hFLT3 LANCE IC50/EC50 (hFLT3): > 20 µM | VEGF_ADSC\ECFC Angio CD31 TubeArea IC50/EC50 [3]: 0.0065 µM | VEGF_ADSC\ECFC Angio Hoechst NucArea IC50/EC50 [4]: > 10 µM

CC[C@@H]([C@H](C)O)n1ncn(-c2ccc(N3CCN(c4ccc(OC[C@@H]5CO[C@@](Cn6cncn6)(c6ccc(F)cc6F)C5)cc4)CC3)cc2)c1=O [NCGC00274060-01]
hGSK3b LANCE IC50/EC50 (hGSK3b): > 20 µM | hp70S6K1 LANCE IC50/EC50 (hp70S6K1 (RPS6KB1)): > 20 µM | WntCondMedia_Alk Phos C2C12 IC50/EC50 [1]: 1.6342 µM | hKDR LANCE IC50/EC50 (hKDR): > 20 µM | WntCondMedia_bCatenin C2C12 IC50/EC50 [2]: 5.2923 µM | Hela CellCycMod PI 2N IC50/EC50 (HeLa cells; 2N): > 10 µM | Hela CellCycMod PI 4N IC50/EC50 (HeLa cells; 4N): > 10 µM | Hela CellCycMod PI MI IC50/EC50 (HeLa cells; MI): > 10 µM | Hela CellCycMod PI Cell Number IC50/EC50 (HeLa cells): > 10 µM | hJAK2 LANCE IC50/EC50 (hJAK2): > 20 µM | hFLT3 LANCE IC50/EC50 (hFLT3): > 20 µM | VEGF_ADSC\ECFC Angio CD31 TubeArea IC50/EC50 [3]: 6.461 µM | VEGF_ADSC\ECFC Angio Hoechst NucArea IC50/EC50 [4]: > 10 µM
